Read-outs that look alike come from different tables or passages of the source. Marks after values point to notes of the source that are not given here.
Assays:
[1] = molecular target: T1, PSOMT2 ((R,S)-norcoclaurine 6-O-methyltransferase) (Papaver somniferum, UniProt Q6WUC1); test: Radioassay of recombinant PSOMT2 with [methyl-3H]-AdoMet (substrate specificity, kinetics, pH and temperature optima); assay type: biochemical; conditions: for Substrate specificity, relative activity of PSOMT2: 100% activity = 2.0 pmoles/sec/mg total protein, radioassay
T1 construct: The full-length cDNA generated by RT-PCR was ligated into pFastBac HTa; His6 (N); made in house; host or cells: Spodoptera frugiperda Sf9 (baculovirus, pFastBac HTa)
T1 sequence (Q6WUC1 1-346): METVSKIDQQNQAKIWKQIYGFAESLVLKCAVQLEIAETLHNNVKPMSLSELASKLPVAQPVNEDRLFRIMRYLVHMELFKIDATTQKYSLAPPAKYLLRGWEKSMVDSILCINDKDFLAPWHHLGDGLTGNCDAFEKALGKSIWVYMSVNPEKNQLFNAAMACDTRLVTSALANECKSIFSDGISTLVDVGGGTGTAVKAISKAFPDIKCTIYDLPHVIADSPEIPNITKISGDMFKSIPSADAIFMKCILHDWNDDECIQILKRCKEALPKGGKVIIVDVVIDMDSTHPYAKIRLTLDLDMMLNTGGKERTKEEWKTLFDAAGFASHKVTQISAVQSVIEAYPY
Description: (§1) Heterologous Expression and Enzyme Purification—The full-length cDNA generated by RT-PCR was ligated into pFastBac HTa that had been digested with restriction endonucleases BamHI and NotI. The recombinant plasmid was transposed into baculovirus DNA in the Escherichia coli strain DH10BAC (Life Technologies) and then transfected into Spodoptera frugiperda Sf9 cells according to the manufacturer's instructions. The insect cells were propagated and the recombinant virus was amplified according to (16,17). INSECT-XPRESS serum-free medium (Bio Whittaker) was used in the enzyme expression experiments.
(§2) After infection of 20 ml suspension grown insect cells had proceded for 3-4 days at 28° C. and 130 rpm, the cells were removed by centrifugation under sterile conditions at 900× g for 5 min at 4° C. All subsequent steps were performed at 4° C. The pellet was discarded and to the medium was added 0.73 g NaCl, 2.5 ml glycerol and 50 μl […]-mercaptoethanol. The pH was adjusted to 7.0 with 1.0 M NaOH. The His-tagged O-methyltransferase was then purified by affinity chromatography using a cobalt resin (Talon, Clontech) according to the manufacturer's instructions.
(§3) Enzyme assay and product identification: The O-methylation reactions catalysed by the two O-methyltransferases were assayed at least two times in duplicate according to Rüffer et al. (1983a; 1983b) as follows. Substrate (25 nmol), [methyl-3H]-AdoMet (20,000 dpm, 0.4 fmol), AdoMet (10 nmol) Tris/HC1 buffer pH 8.0 (10 μmol), ascorbate (5 μmol) and 5-10 μg of enzyme were incubated in a total volume of 150 μl at 35° C. for 5-60 min. The enzymic reaction was terminated by addition of 200 μl ethylacetate. The organic phase ([…]) was added to 3 ml high flash point liquid scintillation cocktail (Packard) and the radioactivity quantified with a Beckman LS6000TA liquid scintillation counter.
(§4) General Methods—Total RNA was isolated and RNA gels were run and blotted as described previously (20). Genomic DNA was isolated and DNA gels were run and blotted according to (21). cDNA clones were labeled by PCR labeling with [[…]-^32P]dATP. Hybridized RNA on RNA gel blots and DNA on DNA gel blots were visualized with a STORM phosphor imager (Molecular Dynamics). The entire nucleotide sequence on both DNA strands of the full-length clone was determined by dideoxy cycle sequencing using internal DNA sequences for the design of deoxyoligonucleotides as sequencing primers. Saturation curves and double reciprocal plots were constructed with the Fig. P program Version 2.7 (Biosoft, Cambridge, UK). The influence of pH on enzyme activity was monitored in sodium citrate (pH 4-6), sodium phosphate (pH 6-7.0) and Tris-HCl (pH 7.0-9), glycine/NaOH (pH 9-10.5) buffered solutions.

[2] = molecular target: T2, PSOMT1 ((R,S)-reticuline 7-O-methyltransferase) (Papaver somniferum, UniProt Q6WUC2); assay type: biochemical
T2 construct: The full-length cDNA generated by RT-PCR was ligated into pFastBac HTa; His6 (N); made in house; host or cells: Spodoptera frugiperda Sf9 (baculovirus, pFastBac HTa)
T2 sequence (Q6WUC2 whole entry): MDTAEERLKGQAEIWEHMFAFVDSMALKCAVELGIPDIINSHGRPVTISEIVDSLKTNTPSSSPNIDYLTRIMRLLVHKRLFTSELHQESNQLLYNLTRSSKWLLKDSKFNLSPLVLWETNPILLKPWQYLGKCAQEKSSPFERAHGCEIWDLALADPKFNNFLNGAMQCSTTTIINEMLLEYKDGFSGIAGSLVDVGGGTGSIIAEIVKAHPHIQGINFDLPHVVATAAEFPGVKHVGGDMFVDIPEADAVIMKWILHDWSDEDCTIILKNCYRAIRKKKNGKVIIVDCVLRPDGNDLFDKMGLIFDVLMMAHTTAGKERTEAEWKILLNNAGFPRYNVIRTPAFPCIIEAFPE
Description: as §1, §2, §3, §4

[3] = 100% activity = 1.5 pmoles/sec/mg total protein, radioassay

Row | SMILES | Substrate specificity, relative activity of PSOMT2 [1] | Substrate specificity, relative activity of PSOMT1 [2, 3] [%] | other results
1 | COc1ccc(CC2NCCc3cc(OC)c(O)cc32)cc1 (racemic) [(R,S)-4′-O-methylcoclaurine] | 0% | 0 | 
2 | COc1cc2c(cc1O)C(Cc1ccc(O)c(O)c1)N(C)CC2 (racemic) [(R,S)-6-O-Methyllaudanosoline] | 0% | 0 | 
3 | COc1cc2c(cc1O)[C@H](Cc1ccc(OC)c(OC)c1)N(C)CC2 (racemic) [(R,S)-Codamine] | 0% | 0 | 
4 | COc1cc2c(cc1O)CCNC2Cc1ccc(O)cc1 (racemic) [(R,S)-Isococlaurine] | 0% | 0 | 
5 | COc1ccc(CC2c3cc(OC)c(OC)cc3CCN2C)cc1O (racemic) [(R,S)-Laudanidine] | 0% | 0 | 
6 | COc1cc2c(cc1O)C(Cc1ccc(O)cc1)N(C)CC2 (racemic) [(R,S)-N-Methylcoclaurine] | 0% | 0 | 
7 | Oc1ccc(CC2NCCc3cc(O)c(O)cc32)cc1 (racemic) [(R,S)-Norcoclaurine] | 100^a % | 0 | Vmax Substrate ([1]; PSOMT2): 5 pmol/s; kcat Substrate ([1]; PSOMT2): 0.08 s⁻¹; Km ([1]; PSOMT2, co-substrate AdoMet with the named substrate, read-out: Km AdoMet): 100 µM; Km ([1]; PSOMT2, read-out: Km Substrate): 10 µM; pH range of methylation ([1]; PSOMT2, wide pH range): 6.0-9.0; methylated by PSOMT2 (radioassay, in words) ([1]; one of forty substrates tested): methylating
8 | COc1cc(CC2NCCc3cc(OC)c(O)cc32)ccc1O (racemic) [(R,S)-Nororientaline] | 0% | 0 | 
9 | COc1ccc2c(c1)CCN[C@@H]2Cc1ccc(OC)c(O)c1 [(R)-7-Dehydroxy-norreticuline] | 0% | 0 | 
10 | COc1ccc(C[C@H]2NCCc3cc(OC)c(O)cc32)cc1O [(R)-Norreticuline] | 0% | 0 | 
11 | COc1ccc(C[C@H]2c3cc(O)c(O)cc3CCN2C)cc1O [(S)-4′-O-Methyllaudanosoline] | 0% | 0 | 
12 | COc1ccc2c(c1)CCN[C@H]2Cc1ccc(OC)c(O)c1 [(S)-7-Dehydroxy-norreticuline] | 0% | 0 | 
13 | COc1cc2c(cc1O)[C@H](Cc1ccc(O)cc1)NCC2 [(S)-Coclaurine] | 0% | 0 | 
14 | COc1cc2c(cc1O)C[C@H]1c3cc(O)c(OC)cc3CCN1C2 [(S)-Coreximine] | 0% | 0 | 
15 | COc1ccc(C[C@@H]2NCCc3cc(OC)c(O)cc32)cc1O [(S)-Norreticuline] | 0% | 0 | 
16 | COc1cc2c(cc1O)[C@@H]1Cc3ccc(OC)c(O)c3CN1CC2 [(S)-Scoulerine] | 0% | 0 | 
17 | O=C(O)/C=C/c1ccc(O)c(O)c1 [Caffeic acid] | 0% | 0 | 
18 | Oc1ccccc1O [Catechol] | 0% | 0 | 
19 | NCCc1ccc(O)c(O)c1 [Dopamine] | 0% |  | Substrate specificity, relative activity of PSOMT1 [2]: 0%
20 | O=c1ccc2cc(O)c(O)cc2o1 [Esculetin] | 0% | 0 | 
